According to US20240270809A1, “ORAL GLP RECEPTOR AGONISTS” (priority 2020, published 2024):
Positions of bridges follow the written chain, without caps; N, C: chain ends. Non-standard residues stand in square brackets, D forms with d. Residues, ends and D or L forms follow the SMILES beside them. *: point of attachment. Malonyl(2,2-Me2,histaminyl) = CC(C)(C(=O)NCCc1cnc[nH]1)C(=O)*; Ala(1H-tetrazol-5-yl) = N[C@@H](Cc1nnn[nH]1)C(=O)O; αMePhe(2-F) = C[C@](N)(Cc1ccccc1F)C(=O)O; αMeL = CC(C)C[C@](C)(N)C(=O)O; Nle = CCCC[C@H](N)C(=O)O; Aib = CC(C)(N)C(=O)O

Experiments:
[1] = biological target: T1, human GLP2 receptor (Homo sapiens, UniProt O95838); assay: cAMP accumulation assay, functional agonism of human GLP2 receptor; type: cell-based; settings: HEK cells infected with human GLP2 receptor BacMam virus, HTRF cAMP; for Emax: HEK293, read-out: Human GLP-2R agonist cAMP Emax; for EC50: read-out: Human GLP-2R agonist cAMP pEC50 (converted)
T1 construct: expressed in transfected cells; host or cells: HEK cells, BacMam virus transduction
T1 sequence (O95838 1-553): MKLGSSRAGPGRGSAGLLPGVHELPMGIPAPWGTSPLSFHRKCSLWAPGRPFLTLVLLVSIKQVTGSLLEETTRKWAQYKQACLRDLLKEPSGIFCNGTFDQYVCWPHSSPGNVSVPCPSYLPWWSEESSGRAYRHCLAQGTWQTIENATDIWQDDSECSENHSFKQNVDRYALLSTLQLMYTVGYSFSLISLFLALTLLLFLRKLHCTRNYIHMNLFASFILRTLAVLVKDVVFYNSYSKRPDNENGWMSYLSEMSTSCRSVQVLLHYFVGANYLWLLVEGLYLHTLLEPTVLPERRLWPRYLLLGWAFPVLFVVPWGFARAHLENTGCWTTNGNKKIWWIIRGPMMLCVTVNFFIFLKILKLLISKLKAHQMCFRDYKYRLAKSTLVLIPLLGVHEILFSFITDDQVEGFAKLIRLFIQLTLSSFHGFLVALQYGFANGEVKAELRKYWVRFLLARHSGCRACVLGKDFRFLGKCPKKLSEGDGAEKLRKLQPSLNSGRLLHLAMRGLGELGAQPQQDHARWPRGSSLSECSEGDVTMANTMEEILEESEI
Summary of the method: (§1)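 HEK cells transduced 24 h with human GLP1 or GLP2 receptor BacMam virus, then frozen until use. Agonist stimulation for 45 min at 37 °C in HBSS with 0.5 mM IBMX; cAMP measured by HTRF after lysis.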

[2] = biological target: T2, human GLP1 receptor (Homo sapiens, UniProt P43220); assay: cAMP accumulation assay, functional agonism of human GLP1 receptor; type: cell-based; settings: HEK cells infected with human GLP1 receptor BacMam virus, HTRF cAMP; for Emax: HEK293, read-out: Human GLP-1R agonist cAMP Emax; for EC50: read-out: Human GLP-1R agonist cAMP pEC50 (converted)
T2 construct: expressed in transfected cells; host or cells: HEK cells, BacMam virus transduction
T2 sequence (P43220 24-463): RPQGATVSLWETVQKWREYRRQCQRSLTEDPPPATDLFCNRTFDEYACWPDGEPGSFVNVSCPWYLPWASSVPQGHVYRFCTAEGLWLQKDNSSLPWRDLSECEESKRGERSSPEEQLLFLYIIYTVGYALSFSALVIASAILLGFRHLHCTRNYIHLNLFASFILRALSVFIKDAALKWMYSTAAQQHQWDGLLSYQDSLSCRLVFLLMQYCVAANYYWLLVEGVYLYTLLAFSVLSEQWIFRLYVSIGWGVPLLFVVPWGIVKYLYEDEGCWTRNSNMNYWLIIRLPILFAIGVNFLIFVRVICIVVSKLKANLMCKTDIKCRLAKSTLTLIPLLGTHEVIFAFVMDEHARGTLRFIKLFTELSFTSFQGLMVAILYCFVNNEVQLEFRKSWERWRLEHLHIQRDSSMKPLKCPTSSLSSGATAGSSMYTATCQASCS
Summary of the method: as §1

[3] = biological target: T3, mouse GLP2 receptor (Mus musculus, UniProt Q5IXF8); assay: cAMP accumulation assay, functional agonism of mouse GLP2 receptor; type: cell-based; settings: HEK cells transiently transfected with mouse GLP2 receptor, HTRF cAMP; for Emax: HEK293, read-out: Mouse GLP-2R agonist cAMP Emax; for EC50: read-out: Mouse GLP-2R agonist cAMP pEC50 (converted)
T3 construct: expressed in transfected cells; host or cells: HEK cells, transient transfection with GeneJuice
T3 sequence (Q5IXF8 1-512): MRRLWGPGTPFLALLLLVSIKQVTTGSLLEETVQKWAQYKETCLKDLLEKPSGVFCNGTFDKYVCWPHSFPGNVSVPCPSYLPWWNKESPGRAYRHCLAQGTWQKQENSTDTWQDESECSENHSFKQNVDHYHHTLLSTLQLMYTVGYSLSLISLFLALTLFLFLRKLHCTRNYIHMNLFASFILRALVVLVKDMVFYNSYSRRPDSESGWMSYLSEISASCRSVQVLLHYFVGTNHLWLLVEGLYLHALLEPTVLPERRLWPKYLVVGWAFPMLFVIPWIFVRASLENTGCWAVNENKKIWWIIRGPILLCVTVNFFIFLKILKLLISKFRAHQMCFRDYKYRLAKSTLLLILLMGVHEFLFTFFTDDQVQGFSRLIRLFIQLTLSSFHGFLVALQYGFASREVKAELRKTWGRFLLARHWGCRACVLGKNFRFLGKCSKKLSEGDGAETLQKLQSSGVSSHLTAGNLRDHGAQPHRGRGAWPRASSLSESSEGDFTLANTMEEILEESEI
Summary of the method: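 Transiently transfected HEK cells (24 h, frozen, 8000/well) in HBSS with 0.5 mM IBMX exposed to compound concentration series for 45 min at 37 °C. cAMP measured by HTRF after lysis and 1 h at RT; pEC50 from four-parameter concentration-response fit.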

[4] = Stability of peptides in Fasted-State Simulated Intestinal Fluid (FaSSIF); type: in vitro ADME; settings: FaSSIF with 10 mg/ml pancreatin, 37° C.; for remaining at 0.5 h: t=30 mins, pH 6.5, 10 mg/ml pancreatin
[5] = Stability of peptides in Fasted-State Simulated Gastric Fluid (FaSSGF); type: in vitro ADME; settings: FaSSGF with 0.1 mg/ml pepsin; t=30 mins, 37° C., pH 1.6, 0.1 mg/ml pepsin
Protocol: Stability of peptides was tested in Fasted-State Simulated gastric Fluid (FaSSGF) prepared according to manufacturer's protocol (Biorelevant, art. no. FFF01). […] FaSSGF was pre-incubated for 15 min at 37° C. and spiked with test and reference item working solutions. Experiments were conducted in duplicate in a non-serial manner. The total incubation volume per replicate was 150 μl. […] All samples and calibration standards (prepared in FaSSGF) were precipitated by addition of 300 μl precipitant (ACN / 2% acetic acid / 0.2% HFBA, (precipitation regent, PR)) containing internal standards (ISTD) to 150 μl sample. After incubation for 1 h at room temperature all samples were centrifuged for 10 min at 2,200×g (room temperature).

[6] = Stability of peptides in rat intestinal fluid (ratIF); settings: Sprague Dawley, undiluted rat small intestinal fluid (ratIF)
Protocol: Peptides were tested for in vitro stability in native intestinal fluid obtained from the rat small intestine. Rat Sprague Dawley Small Intestinal Fluid (ratIF) (from Biotrend art. no. RSD-SIF-MI-30ML, undiluted) was preincubated for 15 min at 37° C. and spiked with test and reference item working solutions. Experiments were conducted in duplicate in a non-serial manner. The total incubation volume per replicate was 150 μl. […] All samples and calibration standards (prepared in ratIF) were precipitated by addition of 300 μl precipitant (ACN / 2% acetic acid / 0.2% HFBA, (precipitation regent, PR)) containing internal standards (ISTD) to 150 μl sample. After incubation for 1 h at room temperature all samples were centrifuged for 10 min at 2,200×g (room temperature).

Structure (SMILES) | Emax [1] [%] | Emax [2] [%] | Emax [3] [%] | remaining at 0.5 h [4] [%] | remaining at 0.5 h [5] [%] | EC50 [1] [nM] | EC50 [2] [nM] | EC50 [3] [nM] | remaining at 0.5 h [6] [%] | remaining at 0.25 h ([4]; FaSSIF pH 6.5 with 10 mg/ml pancreatin, t = 15 mins) [%] | remaining at 0.25 h [6] [%]
CCCC[C@H](NC(=O)[C@H](CCC(=O)O)NC(=O)[C@@H]1CC(=O)NCCCC[C@H](NC(=O)[C@H](CC(=O)O)NC(=O)C(C)(C)NC(=O)[C@@H](N)Cc2c[nH]cn2)C(=O)N[C@@H](CO)C(=O)N[C@@](C)(Cc2ccccc2F)C(=O)N[C@@H](CO)C(=O)N1)C(=O)N[C@H](Cc1ccccc1)C(=O)N[C@H](C(=O)N[C@@](C)(CC(C)C)C(=O)N[C@@H](CC(C)C)C(=O)N[C@@H](CC(=O)O)C(=O)N[C@H]1CCC(=O)NCCCC[C@@H](C(=O)N[C@@H](CC(=O)O)C(=O)N[C@@H](Cc2ccccc2)C(=O)N[C@H](C(=O)N[C@H]2CCC(=O)NCCCC[C@@H](C(=O)N[C@H](C(=O)N[C@@H](CCCCN)C(N)=O)[C@@H](C)O)NC(=O)[C@H]([C@@H](C)CC)NC(=O)[C@H](CC(C)C)NC(=O)[C@H](Cc3c[nH]c4ccccc34)NC2=O)[C@@H](C)CC)NC(=O)[C@H](C)NC(=O)[C@H](C)NC(=O)[C@H](CCCCN)NC1=O)[C@@H](C)O [Example 31] (H-H[Aib]DKS[αMePhe(2-F)]SDE[Nle][dF]T[αMeL]LDEKAAKDFIEWLIKTK-NH2; lactam 4-8, 16-20, 24-28) | 103 | 98.3 | 102 |  |  | 0.0398 | 0.0158 | 0.158 | 24.8 |  | 
CCCC[C@H](NC(=O)[C@H](CCC(=O)O)NC(=O)[C@@H]1CC(=O)NCCCC[C@H](NC(=O)[C@H](CC(=O)O)NC(=O)C(C)(C)NC(=O)[C@@H](N)Cc2c[nH]cn2)C(=O)N[C@@H](CO)C(=O)N[C@@H](Cc2ccccc2)C(=O)N[C@@H](CO)C(=O)N1)C(=O)N[C@H](Cc1ccccc1)C(=O)N[C@H](C(=O)N[C@@](C)(CC(C)C)C(=O)N[C@@H](CC(C)C)C(=O)N[C@@H](CC(=O)O)C(=O)N[C@H]1CCC(=O)NCCCC[C@@H](C(=O)N[C@@H](CC(=O)O)C(=O)N[C@@H](Cc2ccccc2)C(=O)N[C@H](C(=O)N[C@H]2CCC(=O)NCCCC[C@@H](C(=O)N[C@H]3CCC(=O)NCCCC[C@@H](C(N)=O)NC(=O)[C@H]([C@@H](C)O)NC(=O)[C@H]([C@@H](C)CC)NC(=O)[C@H](CCCCN)NC3=O)NC(=O)[C@H]([C@@H](C)CC)NC(=O)[C@H](CC(C)C)NC(=O)[C@H](Cc3c[nH]c4ccccc34)NC2=O)[C@@H](C)CC)NC(=O)[C@H](C)NC(=O)[C@H](C)NC(=O)[C@H](CCCCN)NC1=O)[C@@H](C)O [Example 46] (H-H[Aib]DKSFSDE[Nle][dF]T[αMeL]LDEKAAKDFIEWLIKEKITK-NH2; lactam 4-8, 16-20, 24-28, 29-33 (inferred); C-terminus assumed) | 105 | 97.8 | 101 | 95.3 | 100 | 0.0251 | 0.126 | 10 |  |  | 

The next lines start with the values.

Emax [1] [%] | Emax [2] [%] | Emax [3] [%] | remaining at 0.5 h [4] [%] | remaining at 0.5 h [5] [%] | EC50 [1] [nM] | EC50 [2] [nM] | EC50 [3] [nM] | remaining at 0.5 h [6] [%] | remaining at 0.25 h ([4]; FaSSIF pH 6.5 with 10 mg/ml pancreatin, t = 15 mins) [%] | remaining at 0.25 h [6] [%] | Structure (SMILES)
104 | 96.7 | 101 | 51.1 | 100 |  |  |  |  |  |  | CCCC[C@H](NC(=O)[C@H](CCC(=O)O)NC(=O)[C@@H]1CC(=O)NCCCC[C@H](NC(=O)[C@H](CC(=O)O)NC(=O)C(C)(C)NC(=O)[C@@H](N)Cc2c[nH]cn2)C(=O)N[C@@H](CO)C(=O)N[C@@H](Cc2ccccc2)C(=O)N[C@@H](CO)C(=O)N1)C(=O)N[C@H](Cc1ccccc1)C(=O)N[C@H](C(=O)N[C@@](C)(CC(C)C)C(=O)N[C@@H](CC(C)C)C(=O)N[C@@H](CC(=O)O)C(=O)N[C@H]1CCC(=O)NCCCC[C@@H](C(=O)N[C@@H](CC(=O)O)C(=O)N[C@@H](Cc2ccccc2)C(=O)N[C@H](C(=O)N[C@H]2CCC(=O)NCCCC[C@@H](C(=O)N[C@H](C(=O)N[C@@H](CCCCN)C(=O)N3CCC[C@H]3C(N)=O)[C@@H](C)O)NC(=O)[C@H]([C@@H](C)CC)NC(=O)[C@H](CC(C)C)NC(=O)[C@H](Cc3c[nH]c4ccccc34)NC2=O)[C@@H](C)CC)NC(=O)[C@H](C)NC(=O)[C@H](C)NC(=O)[C@H](CCCCN)NC1=O)[C@@H](C)O [Example 30] (H-H[Aib]DKSFSDE[Nle][dF]T[αMeL]LDEKAAKDFIEWLIKTKP-NH2; lactam 4-8, 16-20, 24-28; N-terminus and C-terminus assumed)
103 | 98.2 | 89.7 |  |  | 0.0251 | 0.0251 | 2 | 73.8 |  |  | CCCC[C@H](NC(=O)[C@H](CCC(=O)O)NC(=O)[C@@H]1CC(=O)NCCCC[C@H](NC(=O)[C@H](Cc2nn[nH]n2)NC(=O)C(C)(C)C(=O)NCCc2c[nH]cn2)C(=O)N[C@@H](CO)C(=O)N[C@@](C)(Cc2ccccc2F)C(=O)N[C@@H](CO)C(=O)N1)C(=O)N[C@H](Cc1ccccc1)C(=O)N[C@H](C(=O)N[C@@](C)(CC(C)C)C(=O)N[C@@H](CC(C)C)C(=O)N[C@@H](CC(=O)O)C(=O)N[C@H]1CCC(=O)NCCCC[C@@H](C(=O)N[C@@H](CC(=O)O)C(=O)N[C@@H](Cc2ccccc2)C(=O)N[C@H](C(=O)N[C@H]2CCC(=O)NCCCC[C@@H](C(=O)N[C@H]3CCC(=O)NCCCC[C@@H](C(N)=O)NC(=O)[C@H]([C@@H](C)O)NC(=O)[C@H]([C@@H](C)CC)NC(=O)[C@H](CCCCN)NC3=O)NC(=O)[C@H]([C@@H](C)CC)NC(=O)[C@H](CC(C)C)NC(=O)[C@H](Cc3c[nH]c4ccccc34)NC2=O)[C@@H](C)CC)NC(=O)[C@H](C)NC(=O)[C@H](C)NC(=O)[C@H](CCCCN)NC1=O)[C@@H](C)O [Example 71] ({Malonyl(2,2-Me2,histaminyl)}-[Ala(1H-tetrazol-5-yl)]KS[αMePhe(2-F)]SDE[Nle][dF]T[αMeL]LDEKAAKDFIEWLIKEKITK-NH2; lactam 2-6, 14-18, 22-26, 27-31 (inferred); C-terminus assumed)
102 | 92.6 | 99.7 |  |  | 0.158 | 10 | 6.31 |  | 40.7 | 24.5 | CCCC[C@H](NC(=O)[C@H](CCC(=O)O)NC(=O)[C@H](CC(=O)O)NC(=O)[C@H](CO)NC(=O)[C@H](Cc1ccccc1)NC(=O)[C@H](CO)NC(=O)CNC(=O)[C@H](CC(=O)O)NC(=O)C(C)(C)NC(=O)[C@@H](N)Cc1c[nH]cn1)C(=O)N[C@H]1CC(=O)NCCCC[C@@H](C(=O)N[C@@H](CC(C)C)C(=O)N[C@@H](CCCCN)C(=O)N[C@@H](C)C(=O)N[C@@H](C)C(=O)N[C@@H](CCCCN)C(=O)N[C@@H](CC(=O)O)C(=O)N[C@@H](Cc2ccccc2)C(=O)N[C@H](C(=O)N[C@@H](CC(N)=O)C(=O)N[C@@H](Cc2c[nH]c3ccccc23)C(=O)N[C@@H](CC(C)C)C(=O)N[C@H](C(=O)N[C@@H](CCC(N)=O)C(=O)N[C@H]2CCCCNC(=O)CC[C@@H](C(N)=O)NC(=O)[C@H]([C@@H](C)O)NC(=O)[C@H]([C@@H](C)CC)NC(=O)[C@H](CCCCN)NC2=O)[C@@H](C)CC)[C@@H](C)CC)NC(=O)[C@H](CC(C)C)NC(=O)[C@H]([C@@H](C)CC)NC(=O)[C@H]([C@@H](C)O)NC1=O [Example 112] (H-H[Aib]DGSFSDE[Nle]DTILKLKAAKDFINWLIQKKITE-NH2; lactam 11-15, 29-33 (inferred); C-terminus assumed)
